Results on eight molecules are retold here after patent US20170137481A1, “Use of Cell-Permeable Peptide Inhibitors of the JNK Signal Transduction Pathway for the Treatment of Various Diseases” (Xigen Inflammation Ltd., priority 2014, published 2017).

Marks after values point to notes of the source that are not given here. Non-standard residues stand in square brackets, D forms with d. No end group written: not given here.

For one data set, the system named is JNK. The settings on record: JBDs; cited from earlier work.
The test system of a further data set is TC-3 cell cultures. The data set can be described thus: Cellular import of fluorescein labeled TAT and TAT-IB1(s) peptides. The format is cell-based. The settings on record: 1 μM. As for the experimental part:
The ability of the L- and D-enantiomeric forms of TAT and TAT-IB1(s) peptides (“TAT-IB peptides”) to enter cells was evaluated. L-TAT, D-TAT, L-TAT-IB1(s), and D-TAT-IB1(s) peptides [SEQ ID NOs: 5, 6, 9 and 12, respectively] were labeled by N-terminal addition of a glycine residue conjugated to fluorescein. Labeled peptides (1 μM) were added to TC-3 cell cultures, which were maintained as described in Example 3. At predetermined times cells were washed with PBS and fixed for five minutes in ice-cold methanol-acetone (1:1) before being examined under a fluorescence microscope. Fluorescein-labeled BSA (1 μM, 12 moles/mole BSA) was used as a control.

Data set [1] deals with acute CYP-induced cystitis in female Sprague-Dawley rats. Briefly: CYP-induced acute cystitis, intravesical treatment. The note with it: 50 mg/mL i.ves.; 24 h post-CYP. It is filed as in vivo, rat. As for the experimental part: (§1) This preclinical model is well-used to test therapeutic approaches for the treatment of interstitial cystitis/painful bladder syndrome (IC/PBS).
(§2) Animals were acclimatized to the laboratory conditions for at least 3 days before the start of any experiments. The animals were allocated to the following four experimental groups (n=10 animals per group):
To induce acute cystitis, a single i.p. injection of CYP at a dose of 150 mg/kg in a final volume of 5 mL/kg was performed. Control rats received physiological saline under the same experimental conditions as CYP (final volume of 5 mL/kg, i.p.).
(§3) On the day of each experiment, weight of rats was recorded.
(§4) Standardized conditions including fixed time-of-day (a.m. to minimize the potential circadian variations in the behaviours responses) and single-experimenter testing of all animals were applied to minimize variability behavior-based pain testing. Visceral pain including allodynia and hyperalgesia was evaluated by applying to the lower abdomen, close to the urinary bladder, a set of 8 calibrated von Frey filaments of increasing forces (1, 2, 4, 6, 8, 10, 26 and 60 g) with an interstimulus interval of 5 seconds. Prior testing, the abdominal area designed for mechanical stimulation of each animal was shaved. Animals were then placed on a raised wire mesh floor under individual transparent Plexiglas box and acclimatized for at least 30 minutes before starting the von Frey test. Filaments were then applied 1-2 seconds through the mesh floor with enough strength to cause the filament to slightly bend. Each filament was tested 3 times. Care was taken to stimulate different areas within the lower abdominal region in the vicinity of the urinary bladder to avoid desensitization.
Urinary bladders were rapidly collected and cleaned from lipoid tissue. […] Finally, wall thickness was measured using a digital caliper by placing the bladder wall between the two outside jaws.

Data set [2] shares this test system. Briefly: CYP-induced acute cystitis, intravenous treatment, visceral pain. It is filed as in vivo, rat. The note with it: XG-102 2 mg/kg i.v., ibuprofen 10 mg/kg i.v.; 24 h post-CYP. As for the experimental part:
as §1, §2
Control rats received physiological saline under the same experimental conditions as CYP (final volume of 5 mL/kg, i.p.).
as §3
as §4, with “Filaments were then applied 1-2 seconds through the mesh floor with enough strength to cause the filament to slightly bend. Each filament was tested 3 times. Care was taken to stimulate different areas within the lower abdominal region in the vicinity of the urinary bladder to avoid desensitization.” left out

The subject of data set [3] is post-surgery intraocular inflammation. Briefly: Phase II post-surgery intraocular inflammation, efficacy. The format is in vivo, human. The settings on record: for Cleared ocular inflammation (cell grade 0 and flare grade 0): Yes: Dexamethasone. As for the experimental part:
The objectives of the present study were to evaluate the efficacy and safety of a single sub-conjunctival injection of XG-102 90 or 900 μg administered within maximally 3 hours after the end of the surgical procedure compared to dexamethasone eye drops administered 4 times/day for 21 days in post-operative intraocular inflammation.
In accordance with this trial's primary objective, the primary outcome was evaluated by the mean anterior chamber cells grade at day 28 post-administration of the sub-conjunctival injection of study treatment comparing XG-102 900 μg with dexamethasone eye drops.
The present trial was a randomized (1:1:1), controlled, double-blind, multicenter non-inferiority clinical trial with three parallel groups of equal size. Randomization, which was blocked by center, was performed using a web-based, secure, randomization system. Eligible patients were male or female (post-menopausal, or sterile by tubal ligation or hysterectomy), who were >18 years of age and who had undergone one of the following ocular surgeries: (a) anterior and posterior segment combined surgery which may include surgery for: cataract and retinal detachment, cataract and epimacular membrane and/or cataract and macular hole or (b) glaucoma surgery or (c) complex posterior segment surgery or (d) complicated intraocular surgery which may include cataract surgery associated with diabetic retinopathy and/or complicated retinal detachment ocular surgery. Patients were not eligible to participate if any of the following exclusion criteria was present at the moment of randomization:
The study protocol planned that 138 patients would be randomized and administered the sub-conjunctival injection of study treatment. […] Patients were randomly allocated to either XG-102 90 or 900 μg which was administered as a single, sub-conjunctival injection of 250 μl within maximally 3 hours after the end of the eye surgery or to dexamethasone eye drops, which were instilled 4 times per day for 21 days. The first study treatment eye drop was instilled within maximally 15 minutes after the sub-conjunctival injection of study treatment. In order to maintain the blinding, patients randomized to the XG-102 group received eye drops containing a NaCl 0.9% solution and patients randomized to the dexamethasone group were administered a sub-conjunctival injection containing NaCl 0.9%. Patients were followed for, in total, 28 (±5) days after administration of the sub-conjunctival injection of study treatment.
Patients were randomized to one of the three study groups: • 1. A single sub-conjunctival injection of XG-102 90 μg+placebo eye drops 4 times/day for 21 days or • 2. A single sub-conjunctival injection of XG-102 900 μg+placebo eye drops 4 times/day for 21 days or • 3. A single sub-conjunctival injection of NaCl 0.9%+dexamethasone eye drops 4 times/day for 21 days.
The primary objective was evaluated by the mean anterior chamber cells grade at day 28 post-administration of the sub-conjunctival administration of study treatment. The criteria for evaluation of the primary objective was
The ophthalmology examinations were performed at baseline (i.e. either on the day of surgery, but before the surgery was performed). […] In order to reduce operator variability, the sites were instructed that, where possible, the same operator should perform all ophthalmology examinations for the same patient throughout the trial. The ophthalmology measurements were performed in accordance with the study-specific instructions. The latter were reviewed and discussed with the site teams during the initiation visit and during each monitoring visit. For the determination of the cell/flare count and cell/flare grade, the SUN Working Group's consensus was used by the sites using the SUN Working group definitions (“Standardization of Uveitis Nomenclature for Reporting Clinical Data. Results of the First International Workshop.,” American Journal of Ophthalmology, vol 140, no. 3, pp. 509-516, 2005). […]

Data set [4] deals with patients who underwent complex ocular surgery. Briefly: Phase II post-surgery intraocular inflammation, safety. The text has this:
The criteria for evaluation of safety were:
An AE is therefore any unfavorable and unintended sign, symptom or disease temporally associated with the use of a medicinal product, whether or not considered related to the medicinal product.
The present study was a double-blind study. All patients who were randomized and for whom the sub-conjunctival injection was started are included in the safety analysis by dose group. […] If the study treatment eye drops were stopped prematurely (i.e. before day 21), the patients concerned continued follow-up until day 28, in accordance with the study protocol.
Investigators assessed (in a blinded manner) the relationship of each reported AE to any of the study treatments. An event was considered to be related to study treatment if the Investigator ticked either ‘possible’ or ‘probable’ as the reply to this question.

The test system of a further data set is TC-3 cells. Briefly: IL-1 induced pancreatic beta-cell death with peptides. The format is cell-based. The note with it: 1 μM single addition, two days IL-1. On the procedure: Inhibition of IL-1 induced pancreatic beta-cell death by the D-TAT-IB1(s) peptide was analyzed. TC-3 cells were incubated as described above for 30 minutes with one single addition of the indicated peptides (1 μM), then IL-1 (10 ng/ml) was added.
Apoptotic cells were then counted after two days of incubation with IL-1 by use of Propidium Iodide and Hoechst 33342 nuclear staining. A minimum of 1,000 cells were counted for each experiment. Standard Error of the Means (SEM) are indicated, n=5.
Long term inhibition of IL-1 P induced cell-death by the D-TAT-IB1 peptide was also analyzed. TC-3 cells were incubated as above for 30 minutes with one single addition of the indicated peptides (1 μM), then IL-1 (10 ng/ml) was added, followed by addition of the cytokine every two days. Apoptotic cells were then counted after 15 days of incubation with IL-1 by use of propidium iodide and Hoechst 33342 nuclear staining. […] A minimum of 1.000 cells were counted for each experiment.

For data set [5], the target named is JNK of primary mouse cortical neuron cultures. The data set can be described thus: cell-based or functional assay.
Where [6] appears, read: Dexamethasone group, blinded assessment.

For the molecule “IPSPSVEEPHKHRPTTLRLTTLGAQDS (Description of sequence Peptide IB2-long (see Table 1))”, in the data set with JNK, the “efficiency in binding JNK versus c-Jun or ATF2” value is on record as “approximately 100 fold”.
“PGTGCGDTYRPKRPTTLNLFPQVPRSQDT (Description of sequence peptide IB1-long (see Table 1))”: the “efficiency in binding JNK versus c-Jun or ATF2” value in the data set on JNK is “approximately 100 fold”.
Consider “GRKKRRQRRR (Description of sequence Peptide L-TAT (see Table 1))”, for which the entry into cells entry in the data set with TC-3 cell cultures is “efficiently and rapidly (less than five minutes) entered cells”.
As for “RRRQRRKKRG (D-amino acids; Description of sequence Peptide D-TAT (see Table 1))”, the entry into cells result in the data set with TC-3 cell cultures was “efficiently and rapidly (less than five minutes) entered cells”.
With `CC(C)Cc1ccc(C(C)C(=O)O)cc1` (centres unmarked) [ibuprofen], in data set [1], the haemorrhage scores entry is recorded as “no significant change was observed regarding haemorrhage scores”, the “nociceptive scores versus vehicle” value was “significant decrease of nociceptive scores”, the “nociceptive threshold versus vehicle” value was “significantly increased” and the “urinary bladder wall thickness” value is reported as “a significant decrease was observed in urinary bladder wall thickness”. Besides, in data set [2], the “nociceptive scores versus vehicle” value is reported as “significantly decrease nociceptive scores” and the “nociceptive threshold versus vehicle” value is “significantly increased”.
`C[C@@H]1C[C@H]2[C@@H]3CCC4=CC(=O)C=C[C@]4(C)[C@@]3(F)[C@@H](O)C[C@]2(C)[C@@]1(O)C(=O)CO` [Dexamethasone, reference compound]: in data set [3] (Visit 1 (21 hours), Full analysis population), the “Cleared ocular inflammation (cell grade 0 and flare grade 0): Yes” value (shortened to “Cleared ocular inflammation”) is given as 4 (8.2%) # patients (%). For the same molecule, the “Cleared ocular inflammation” value in data set [3] (Visit 1 (21 hours), Per-protocol population) is listed as 4 (8.2%) # patients (%). Also, in data set [3] (Visit 2 (7 days), Full analysis population), the “Cleared ocular inflammation” value is 9 (18.8%) # patients (%). Also, the “Cleared ocular inflammation” value in data set [3] (Visit 2 (7 days), Per-protocol population) is reported as 9 (18.8%) # patients (%). The “Cleared ocular inflammation” value in data set [3] (Visit 3 (14 days), Full analysis population) was 10 (20.4%) # patients (%). Further, in data set [3] (Visit 3 (14 days), Per-protocol population), the “Cleared ocular inflammation” value was 10 (21.3%) # patients (%). Also, in data set [3] (Visit 4 (28 days), Full analysis population), the “Cleared ocular inflammation” value was 17 (35.4%) # patients (%). Moreover, the “Cleared ocular inflammation” value in data set [3] (Visit 4 (28 days), Per-protocol population) was 15 (34.9%) # patients (%). Besides, the “percentage of patients for whom rescue medication was introduced” value in data set [3] (eye drops 4 times/day, 21 days) came out at 4.0%. Moreover, the “AEs possibly or probably related to study treatment as assessed by the Investigator” value in data set [4] (Dexamethasone (N = 50)) is recorded as 15 Total # events. Moreover, in data set [4] (Dexamethasone dose group), the “Adverse events which led to an interruption of study treatment” value is 3 (5.5%) number of events (% of reported events), the “Reported AEs by severity: Mild” value is 42 (76.4%) number of events (%), the “Reported AEs by severity: Moderate” value is given as 9 (16.4%) number of events (%) and the “Reported AEs by severity: Severe” value was 4 (7.3%) number of events (%). In data set [4] (setting [6]), the “AEs considered by the Investigator to be related to Dexamethasone” value was 2 (3.6%) # events (%) and the “AEs considered by the Investigator to be related to XG-102” value was 13 (23.64%) # events (%). In data set [4] (dexamethasone group), the “AEs possibly or probably related to study medication” value stood at 15 events; the “Intraocular pressure increased, patients” value is recorded as 14%; the “events in SOC EYE DISORDERS” value came out at 30 events; the “events resulting in premature withdrawal of study treatment eye drops” value came out at 3 events. Also, in data set [4] (dexamethasone group), the “patients with SAE” value is 2 patients, the “patients with event in SOC EYE DISORDERS” value was 16 (32%), the “percentage of patients with an AE within 24 hours after administration” value was 30% and the “total number of AEs reported” value is 55.
Take “TDQSRPVQPFLNLTTPRKPRYTDPPRRRQRRKKRG ([dT][dD][dQ][dS][dR][dP][dV][dQ][dP][dF][dL][dN][dL][dT][dT][dP][dR][dK][dP][dR][dY][dT][dD][dP][dP][dR][dR][dR][dQ][dR][dR][dK][dK][dR]G) [D-TAT-IB1]”: in the data set on TC-3 cells, the IL-1 induced apoptosis entry is listed as “decreased IL-1 induced apoptosis to a similar extent as L-TAT-IB peptides”.
Take D-TAT-IB1(s) (peptide): in data set [5], the JNK activation (immunoblot) in Aβ42-stressed PKR-/- cortical neurons; peptide at 10 µM was -35%; the JNK activity (pJNK/JNK ratio, immunoblot) in cortical neurons under H2O2 oxidative stress; peptide at 10 µM stood at 45%; the c-Jun phosphorylation (immunoblot) in Aβ42-stressed WT cortical neurons; peptide at 10 µM was -74%.
